Measurements from patent US7544814B2, “[3.2.0] Heterocyclic compounds and methods of using the same” (Nereus Pharmaceuticals, Inc., priority 2004, dated 2009).
Where “and” joins values, the source holds several entries; their conditions need not be identical. Equal values may be shown once. Read-outs that look alike come from different tables or passages of the source.

How the values were obtained:
[1] = biological target: T1, trypsin-like activity of purified rabbit muscle 20S proteasome (Oryctolagus cuniculus, UniProt G1SWK8); assay: biochemical
T1 sequence (G1SWK8 1-271): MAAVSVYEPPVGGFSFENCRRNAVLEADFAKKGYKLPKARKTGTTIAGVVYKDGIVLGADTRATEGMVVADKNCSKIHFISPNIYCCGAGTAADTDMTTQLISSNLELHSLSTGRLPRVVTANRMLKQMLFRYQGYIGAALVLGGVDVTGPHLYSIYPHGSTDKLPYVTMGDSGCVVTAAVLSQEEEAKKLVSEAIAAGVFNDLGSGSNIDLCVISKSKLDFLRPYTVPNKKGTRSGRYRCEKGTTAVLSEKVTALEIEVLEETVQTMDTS

NF-κB = assay: NF-κB-mediated luciferase reporter gene assay, HEK293 NF-κB/Luc cells, TNF-α stimulation; assay type: cell-based, human; details: for EC50: Homo sapiens; for effect on luciferase activity upon TNF-α stimulation, in words: pretreatment of NF-κB/Luc 293 cells
In short: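 Cells seeded at 1.5×10^4/well in phenol-red free DMEM, pretreated 1 h with 8-point half-log compound dilutions (DMSO stocks), then stimulated with TNF-α (10 μl of 50 ng/ml solution) for 6 h. Luciferase read as RLU after 10 min with Steady Lite reagent at room temperature.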

RPMI 8226 = assay: Cell growth inhibition (resazurin), RPMI 8226; details: for EC50: Homo sapiens; for cytotoxicity against RPMI 8226, in words: from EC50 values
U266 = assay: Cell growth inhibition (resazurin), U266; details: for EC50: 48 hours drug exposure; for cytotoxicity against U266, in words: from EC50 values
[2] = biological target: T2, caspase-like activity of purified rabbit muscle 20S proteasome (Oryctolagus cuniculus, UniProt A0A5F9DQW2); assay: In vitro inhibition of 20S proteasome caspase-like activity (Z-LLE-AMC)
T2 sequence (A0A5F9DQW2 1-212): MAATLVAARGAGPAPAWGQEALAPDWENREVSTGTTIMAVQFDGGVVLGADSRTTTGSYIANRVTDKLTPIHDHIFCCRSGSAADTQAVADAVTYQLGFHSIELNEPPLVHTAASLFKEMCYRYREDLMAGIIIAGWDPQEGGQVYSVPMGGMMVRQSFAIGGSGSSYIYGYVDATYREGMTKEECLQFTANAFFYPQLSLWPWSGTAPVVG

[3] = biological target: T1, trypsin-like activity of purified rabbit muscle 20S proteasome; assay: In vitro inhibition of 20S proteasome trypsin-like activity (Boc-LRR-AMC); details: under the conditions tested
[4] = biological target: T3, chymotrypsin-like activity of purified rabbit muscle 20S proteasome (Oryctolagus cuniculus, UniProt G1T4Q9); assay: In vitro inhibition of 20S proteasome chymotrypsin-like activity (suc-LLVY-AMC)
T3 sequence (G1T4Q9 1-263): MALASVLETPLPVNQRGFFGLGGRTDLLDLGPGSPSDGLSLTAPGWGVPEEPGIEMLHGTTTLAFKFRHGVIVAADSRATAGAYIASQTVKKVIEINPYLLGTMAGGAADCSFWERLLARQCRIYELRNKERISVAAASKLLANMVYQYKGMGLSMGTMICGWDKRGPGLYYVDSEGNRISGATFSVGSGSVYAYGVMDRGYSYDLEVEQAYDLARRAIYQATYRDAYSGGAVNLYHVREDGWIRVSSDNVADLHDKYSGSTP

MES-SA = assay: Cell growth inhibition (resazurin), MES-SA; assay type: cell-based, human; details: from EC50 values
B16-F10 = assay: Cell growth inhibition (resazurin), B16-F10; details: from EC50 values
HL-60/MX2 = assay: Cell growth inhibition (resazurin), multidrug resistant HL-60/MX2; details: from EC50 values
Method: Concentrations ranging from 6.32 μM to 2 nM were tested for II-2 and II-4.
HL-60/MX2 is a multidrug resistant tumor cell line derived from the human promyelocytic leukemia cell line, HL-60 and expresses reduced topoisomerase II activity. […] Mitoxantrone, the topoisomerase II targeting agent was included as a control.

PC-3 = assay: Cell growth inhibition (resazurin), PC-3; assay type: cell-based, human; details: from EC50 values
[5] = HEK293, read-out: NF-κB EC50, Table 12
[6] = RPMI-8226, read-out: Cytotoxicity RPMI EC50, Table 12
[7] = Proteasome Caspase-like EC50, Table 12
[8] = EC50 Chymotrypsin-like, Table 6, values in nM
[9] = Proteasome Chymotrypsin-like EC50, Table 12

Row | Compound | EC50 (NF-κB; [5]) [nM] | effect on luciferase activity upon TNF-α stimulation, in words (NF-κB) | EC50 (RPMI 8226; [6]) [nM] | cytotoxicity against RPMI 8226, in words (RPMI 8226) | cytotoxicity against U266, in words (U266) | EC50 [2, 7] | inhibition of the trypsin-like activity of the 20S proteasome, in words [3] | EC50 [4, 8] [nM] | EC50 [4, 9] | other results
1 | C[C@H]1C(=O)N[C@@]2(C(O)[C@@H]3C=CCCC3)C(=O)O[C@@]12C (single isomer, unassigned) [Formula II-20] | 849 ± 225 | dose-dependent decrease | 8510 ± 3260 | cytotoxic | cytotoxic | 1.42 µM | able to inhibit | 7.7 ± 3 | 7.7 ± 3 nM | EC50 [1]: 318 nM and 321 nM; EC50 (RPMI 8226; RPMI-8226, 48 h, read-out: RPMI 8226 EC50, Table 2, 48 hours drug exposure, mean ± SD where n≥3): 8510 ± 3260 nM; EC50 (U266; Homo sapiens, U-266, 48 h, read-out: U266 EC50, Table 2): 310 nM; EC50 (U266; read-out: U266 EC50, Table 2): 442 nM; EC50 ([2]; EC50 Caspase-like, Table 6, values in μM): 1.4 µM; EC50 ([2]; EC50 values, caspase-like activity, range in mixed units, summary of Table 6, range from nM to μM): 0.956 to 8.7 µM
2 | C[C@@]12OC(=O)[C@]1([C@@H](O)[C@@H]1C=CCCC1)NC(=O)[C@@H]2CCBr [Formula II-18] | 11 | dose-dependent decrease | 6.3 | cytotoxic | cytotoxic | 0.286 µM and 0.213 µM | able to inhibit | 2.3 | 2.3 nM and 2 nM | cytotoxic activity against MES-SA, in words (MES-SA): cytotoxic activity; EC50 (NF-κB; HEK293, read-out: EC50, NF-κB-mediated luciferase reporter gene assay, Table 5, values in nM, 1 hr pretreatment, TNF-α 6 hr): 9 nM; cytotoxicity against B16-F10, in words (B16-F10): cytotoxic; cytotoxic activity against HL-60/MX2, in words (HL-60/MX2): retained cytotoxic activity; cytotoxicity against PC-3, in words (PC-3): cytotoxic; EC50 ([2]; EC50 Caspase-like, Table 6, values in nM): 0.286 µM and 0.213 µM; EC50 ([2]; EC50 values, caspase-like activity, summary of Table 6): 0.213 to 0.85 µM; EC50 ([4]; EC50 values, chymotrypsin-like activity, summary of Table 6): 2 to 11 nM
